In PubChem BioAssay (NCI):
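Cultured in 96-well plates, cells were exposed to test compound for 48 hours across five concentrations. GI50 is the concentration that inhibits growth by half. Definition used: TGI = concentration required for complete inhibition of growth.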

Assays:
Experiment in all cases: NCI anticancer screen, dose series, 48 h
SNB-75 CNS = system: SNB-75 CNS
EKVX NSCLC = system: EKVX NSCLC
TK-10 renal = system: TK-10 renal
UO-31 renal = system: UO-31 renal
LOX IMVI melanoma = system: LOX IMVI melanoma
SF-268 CNS = system: SF-268 CNS
HCC-2998 colon = system: HCC-2998 colon
MDA-MB-435 = system: MDA-MB-435
MDA-MB-231 breast = system: MDA-MB-231 breast

## CCC1(O)C(=O)OCc2c1cc1n(c2=O)Cc2c-1nc1ccccc1c2OC (configuration not stated)
SNB-75 CNS
  TGI: 0.129 µM
EKVX NSCLC
  TGI: > 54.5 µM
TK-10 renal
  TGI: > 100 µM
UO-31 renal
  TGI: 0.249 µM
LOX IMVI melanoma
  TGI: 0.441 µM
SF-268 CNS
  TGI: 2.31 µM
HCC-2998 colon
  TGI: 5.77 µM

## Cn1c(O)c(C=N)c(=O)n(C)c1=O
SNB-75 CNS
  TGI: > 100 µM
EKVX NSCLC
  TGI: > 100 µM
TK-10 renal
  TGI: > 100 µM
UO-31 renal
  TGI: > 100 µM
LOX IMVI melanoma
  TGI: > 100 µM
SF-268 CNS
  TGI: > 100 µM
HCC-2998 colon
  TGI: > 100 µM

## CC1=C(C)C(=O)c2c(cc3c4ccccc4ccn23)C1=O
SNB-75 CNS
  TGI: > 100 µM
EKVX NSCLC
  TGI: > 100 µM
TK-10 renal
  TGI: > 100 µM
UO-31 renal
  TGI: > 100 µM
LOX IMVI melanoma
  TGI: > 100 µM

## CCOC(=O)NC(=O)c1cn(CCCCCCCCCCC(=O)N2CCN(CCn3cc(C(=O)NC(=O)OCC)c(=O)[nH]c3=O)CC2)c(=O)[nH]c1=O
SNB-75 CNS
  TGI: > 100 µM
EKVX NSCLC
  TGI: > 100 µM
TK-10 renal
  TGI: > 100 µM
LOX IMVI melanoma
  TGI: > 100 µM
HCC-2998 colon
  TGI: > 100 µM

## Cn1nc(-c2ccccc2)c(C(=O)/C=C/c2ccccc2)c(N2CCCCC2)c1=O
EKVX NSCLC
  TGI: > 100 µM
TK-10 renal
  TGI: > 100 µM
UO-31 renal
  TGI: > 100 µM
LOX IMVI melanoma
  TGI: > 100 µM
SF-268 CNS
  TGI: > 100 µM

## C[CH2][Sn]1([CH2]C)[O]C2C(O)OC(CO)C(O)C2[O]1 (configuration not stated)
SNB-75 CNS
  GI50: > 100 µM
  TGI: > 100 µM
TK-10 renal
  GI50: 18.4 µM
  TGI: 36.5 µM
UO-31 renal
  GI50: 68.7 µM
  TGI: > 100 µM
SF-268 CNS
  GI50: 39.4 µM
  TGI: > 100 µM
MDA-MB-435
  GI50: 52.6 µM
  TGI: > 100 µM
MDA-MB-231 breast
  GI50: 14.4 µM
  TGI: 28.6 µM

## S=C1CNC(=S)CN1
SNB-75 CNS
  TGI: > 100 µM
TK-10 renal
  TGI: > 100 µM
UO-31 renal
  TGI: > 100 µM
LOX IMVI melanoma
  TGI: > 100 µM
SF-268 CNS
  TGI: > 100 µM
HCC-2998 colon
  TGI: > 100 µM

## CCC[CH2][Sn]([CH2]CCC)([O]C(=O)c1cc(OC)c(OC)c(OC)c1)[O]C(=O)c1cc(OC)c(OC)c(OC)c1
SNB-75 CNS
  GI50: 0.169 µM
  TGI: 1.29 µM
EKVX NSCLC
  GI50: 1.95 µM
  TGI: 4.69 µM
TK-10 renal
  GI50: 1.58 µM
  TGI: 3.02 µM
UO-31 renal
  GI50: 1.33 µM
  TGI: 2.61 µM
LOX IMVI melanoma
  GI50: 0.695 µM
  TGI: 2.77 µM
SF-268 CNS
  GI50: 1.21 µM
  TGI: 2.48 µM

## COC1OC(COCc2ccc(Cl)cc2)C(OCc2ccc(Cl)cc2)C1O (configuration not stated)
SNB-75 CNS
  TGI: 32.8 µM
EKVX NSCLC
  TGI: 46.3 µM
TK-10 renal
  TGI: 67.4 µM
UO-31 renal
  TGI: 29.4 µM
LOX IMVI melanoma
  TGI: 32.8 µM
SF-268 CNS
  TGI: 35.5 µM
HCC-2998 colon
  TGI: 32.6 µM

## CCCCCCCCCCCCCCCCc1c(C(=O)OC)[nH]c(=S)[nH]c1=O
SNB-75 CNS
  TGI: > 50 µM
EKVX NSCLC
  TGI: > 50 µM
TK-10 renal
  TGI: > 50 µM
UO-31 renal
  TGI: > 50 µM
LOX IMVI melanoma
  TGI: > 50 µM
SF-268 CNS
  TGI: > 50 µM
HCC-2998 colon
  TGI: > 50 µM

## CCOC(=O)CC(=O)N(c1ccc(OC)cc1)C(C(=O)OC)c1ccccc1 (configuration not stated)
SNB-75 CNS
  TGI: > 100 µM
EKVX NSCLC
  TGI: > 100 µM
TK-10 renal
  TGI: > 100 µM
UO-31 renal
  TGI: > 100 µM
LOX IMVI melanoma
  TGI: > 100 µM
SF-268 CNS
  TGI: > 100 µM
MDA-MB-435
  TGI: > 100 µM

## CCOC(=O)/C(=C/c1cc(OC)ccc1OC)CC(=O)O
SNB-75 CNS
  TGI: > 100 µM
EKVX NSCLC
  TGI: > 100 µM
TK-10 renal
  TGI: > 100 µM
UO-31 renal
  TGI: > 100 µM
LOX IMVI melanoma
  TGI: > 100 µM
SF-268 CNS
  TGI: > 100 µM
HCC-2998 colon
  TGI: > 31.6 µM

## O=S1Cc2ccccc2CS1 (configuration not stated)
SNB-75 CNS
  TGI: 61.5 µM
EKVX NSCLC
  TGI: 44.9 µM
TK-10 renal
  TGI: 55.6 µM
UO-31 renal
  TGI: 56.4 µM
LOX IMVI melanoma
  TGI: 21.3 µM
SF-268 CNS
  TGI: > 100 µM
HCC-2998 colon
  TGI: 93.2 µM

## CC(=O)NC(ON1C(=O)COc2ccccc21)C(Cl)(Cl)Cl (configuration not stated)
SNB-75 CNS
  TGI: > 100 µM
TK-10 renal
  TGI: > 100 µM
UO-31 renal
  TGI: > 100 µM
LOX IMVI melanoma
  TGI: > 100 µM
SF-268 CNS
  TGI: > 100 µM
HCC-2998 colon
  TGI: > 100 µM

## Cc1ccc(NC(=O)C2C(=O)C(=O)N(c3ccc(C)cc3)C2=O)cc1 (configuration not stated)
EKVX NSCLC
  TGI: > 100 µM
TK-10 renal
  TGI: > 100 µM
UO-31 renal
  TGI: > 100 µM
SF-268 CNS
  TGI: > 100 µM
HCC-2998 colon
  TGI: > 100 µM

## Cc1c(NC(=O)CCCl)c(=O)oc2c(C)c3occc(=O)c3cc12
SNB-75 CNS
  TGI: > 100 µM
EKVX NSCLC
  TGI: > 100 µM
TK-10 renal
  TGI: > 100 µM
UO-31 renal
  TGI: > 100 µM
SF-268 CNS
  TGI: > 100 µM
HCC-2998 colon
  TGI: > 100 µM

## Nc1ccccc1S(=O)c1ccccc1 (configuration not stated)
SNB-75 CNS
  TGI: > 100 µM
EKVX NSCLC
  TGI: > 100 µM
TK-10 renal
  TGI: > 100 µM
UO-31 renal
  TGI: > 100 µM
LOX IMVI melanoma
  TGI: > 100 µM
SF-268 CNS
  TGI: > 100 µM
HCC-2998 colon
  TGI: > 100 µM

## CC(=O)c1cc2c3c(c1)c1cc4c(cc1c(=O)n3CC2)OCO4
SNB-75 CNS
  TGI: > 100 µM
EKVX NSCLC
  TGI: > 100 µM
TK-10 renal
  TGI: > 100 µM
UO-31 renal
  TGI: 38.6 µM
LOX IMVI melanoma
  TGI: > 100 µM
HCC-2998 colon
  TGI: > 100 µM

## Cc1cc(=O)[nH]c(CNC(=O)c2cccc3ccccc23)n1
SNB-75 CNS
  TGI: > 100 µM
EKVX NSCLC
  TGI: > 100 µM
TK-10 renal
  TGI: > 100 µM
UO-31 renal
  TGI: > 100 µM
LOX IMVI melanoma
  TGI: > 100 µM
SF-268 CNS
  TGI: > 100 µM
HCC-2998 colon
  TGI: > 100 µM

## c1ccc2c(c1)nnn1c3cnccc3nc21
SNB-75 CNS
  TGI: > 100 µM
EKVX NSCLC
  TGI: > 100 µM
TK-10 renal
  TGI: 94.7 µM
UO-31 renal
  TGI: > 100 µM
LOX IMVI melanoma
  TGI: > 100 µM
SF-268 CNS
  TGI: > 100 µM
HCC-2998 colon
  TGI: > 100 µM

## CC1C(=O)CCC1C(Sc1ccccc1)(Sc1ccccc1)Sc1ccccc1 (configuration not stated)
SNB-75 CNS
  TGI: 64.6 µM
EKVX NSCLC
  TGI: > 100 µM
TK-10 renal
  TGI: > 100 µM
UO-31 renal
  TGI: 5.9 µM
LOX IMVI melanoma
  TGI: 68.5 µM
SF-268 CNS
  TGI: 46.3 µM
HCC-2998 colon
  TGI: > 100 µM

## COC(=O)C1C2CC3C(OC(=O)C31)C2I (configuration not stated)
SNB-75 CNS
  TGI: > 100 µM
EKVX NSCLC
  TGI: > 100 µM
TK-10 renal
  TGI: > 10 µM
UO-31 renal
  TGI: > 100 µM
LOX IMVI melanoma
  TGI: > 100 µM
SF-268 CNS
  TGI: > 100 µM
HCC-2998 colon
  TGI: > 100 µM
